Values after ≈ are worked out from the molar mass of the structure shown.
Experiments:
[1] = biological target: T1, human PAFR (Homo sapiens, UniProt P25105); experiment: cellular HTRF IP1 endpoint assay: inhibition of PAFR activation by PAF C-16 ligand; type: cell-based; conditions: HEK293 cells overexpressing human PAFR; PAF ligand 11 nM
T1 construct: expressed in transfected cells; host or cells: HEK293
Experimental: The ability of compounds of formula (I.0) to inhibit the activation of the PAF receptor (PAFR) by the PAF C-16 ligand (PAF) is determined using the following cellular HTRF IP1 assay (IP1 Gq assay kit from Cisbio, Cat. no.: 62IP1APEJ) in assay buffer (1×HBSS, 20 mM Hepes, pH 7.4, 50 mM LiCl and containing 0.1% (w/v) BSA):
HEK293 cells overexpressing human PAFR (produced in-house) are seeded into a Poly-D-Lysine coated 384 well white cell culture microtiter assay plate with lid (15.000 cells per well). Subsequently, the plates are incubated over night at 37° C./5% CO2. On the next day, cells are being washed and subsequently, various concentrations of the test compounds (compounds in 100% DMSO; final concentration of DMSO in wells is 1%) are added to the assay plate via Echo 555 acoustic liquid handler. Plates are then incubated with lid for 90 minutes at 37° C./5% CO2. Thereafter, PAF ligand (Cayman Chemical Company, Item no.: 60900) is added at a final concentration of 11 nM. Plates are then incubated with lid for 60 minutes at 37° C./5% CO2. Then, 5 μl per well of Anti-IP1-Anti body-Cryptate solution and 5 μL per well of IP1-d2 solution are added to all wells of the plate and the plate is incubated for another 60 minutes light protected at room temperature. The emissions at 620 nm and 665 nm (Excitation wavelength: 320 nm) are measured using an Envision Reader (PerkinElmer).

[2] = chemical stability in acidic aqueous media (pH ca. 1.2), HPLC recovery; type: physicochemical; conditions: acetonitrile/0.1 M aqueous HCl 2:3, pH ca. 1.2, 37° C.
Experimental: Degradation studies are used to simulate chemical stability of compounds in the acidic part of the gastro intestinal tract. The compounds of the invention show high chemical stability in acidic aqueous media (pH value ca. 1.2) what makes their application as medical drugs to treat human diseases less restricted and troublesome.
The chemical stability of the compounds of the invention at pH value of ca. 1.2 is determined as follows: Compound is dissolved in an HPLC vial in a mixture of acetonitrile/0.1 M aqueous HCl (ratio: 2:3; pH ca. 1.2) to get a concentration of approximately 0.25 mg/ml. The vial is then transferred into an HPLC autosampler system and maintained at a temperature of 37° C. A first sample is taken and injected immediately into a standard HPLC system with a UV DAD detector. A further samples is injected after 24 hours. Amount of degraded compound is measured by determining the recovery rate of compound [%] for the 24 h injection using an HPLC standard gradient method. Therefore the peak area of the main peak for the first injection (AUt0) is determined and set as 100%. Peak area of the main peak is determined also for the 24 h injection (AU24 h) and expressed as fraction of (AU24 h)/(AUt0)[%].

[3] = aqueous solubility in buffer (from DMSO stock, 24 h shaking, LC-UV); conditions: pH 2.2, aqueous buffer, kinetic from dmso stock
Experimental: (§1) The aqueous solubility of the test compound is determined by comparing the amount dissolved in buffer to the amount in an ACN/water (1/1) solution. Starting from a 10 mM DMSO stock solution aliquots are diluted with ACN/water (1/1) or buffer, respectively. After 24 h of shaking, the solutions are filtrated and analyzed by LC-UV. The amount dissolved in buffer is compared to the amount in the ACN solution.
(§2) Solubility will usually be measured from 0.001 to 0.125 mg/mL at a DMSO concentration of 2.5%. If more than 90% of the compound is dissolved in buffer, the value is marked with “>”.

[4] = physchem; conditions: pH 2.2, aqueous buffer, kinetic from dmso stock
Experimental: as §1, §2

T1 sequence (P25105 whole entry): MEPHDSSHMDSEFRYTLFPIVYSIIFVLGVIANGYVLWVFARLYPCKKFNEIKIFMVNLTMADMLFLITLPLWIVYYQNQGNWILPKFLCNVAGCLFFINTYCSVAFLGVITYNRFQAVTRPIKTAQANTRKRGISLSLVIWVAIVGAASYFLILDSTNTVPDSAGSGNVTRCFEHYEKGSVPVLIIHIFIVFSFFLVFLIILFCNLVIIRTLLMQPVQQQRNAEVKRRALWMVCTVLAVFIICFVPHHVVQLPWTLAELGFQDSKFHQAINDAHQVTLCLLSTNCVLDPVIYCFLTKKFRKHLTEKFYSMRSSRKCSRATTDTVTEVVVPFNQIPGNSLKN

SMILES | IC50 [1] [nM] | Amount of degradation after 24 h [2] | solubility at 24 h [3] [µg/mL] | solubility at 24 h [4] [µg/mL]
Cc1nnc2n1-c1sc3c(c1[C@H](c1ccccc1Cl)NC2)C[C@H](C(=O)N1CCOCC1)C3 [Example 2, (9R,13S)-9-(2-Chlorophenyl)-3-methyl-13-(morpholine-4-carbonyl)-16-thia-2,4,5,8-tetraazatetracyclo[8.6.0.0^2,6.0^11,15]-hexadeca-1(10),3,5,11(15)-tetraene] | 30 | 1% | > 117 | –
Cc1nnc2n1-c1sc3c(c1[C@H](c1ccccc1Cl)NC2)C[C@H](C(=O)NCCOC(F)(F)F)C3 [Example 17] | 2.8 | 2% | > 114 | –
CCCNC(=O)[C@@H]1Cc2sc3c(c2C1)[C@H](c1ccccc1Cl)NCc1nnc(C)n1-3 [Example 19] | 3 | 3% | > 111 | –
Cc1nnc2n1-c1sc3c(c1[C@H](c1ccccc1Cl)NC2)C[C@H](C(=O)N1CC2CC1C2)C3 [Example 21] | 9.1 | 1% | > 105 | –
Cc1nnc2n1-c1sc3c(c1[C@H](c1ccccc1Cl)NC2)C[C@H](C(=O)N1CCOC(C)(C)C1)C3 [Example 26] | 4.9 | 2.5%^ | > 136 | –
Cc1nnc2n1-c1sc3c(c1[C@H](c1ccccc1Cl)NC2)C[C@H](C(=O)NC1CCC1)C3 [Example 28] | 1.7 | 0.5%^ | > 142 | –
Cc1nnc2n1-c1sc3c(c1C(c1ccccc1Cl)NC2)CC(C(=O)N1CCCC2(CC2)C1)C3 (stereo not shown) [Example 66, 13-{5-Azaspiro[2.5]octane-5-carbonyl}-9-(2-chlorophenyl)-3-methyl-16-thia-2,4,5,8-tetraazatetracyclo-[8.6.0.0^2,6.0^11,15]hexadeca-1(10),3,5,11(15)-tetraene] | 2.7 | – | – | > 124
CCCN(CCC)C(=O)[C@@H]1Cc2sc3c(c2C1)[C@@H](c1ccccc1Cl)NCc1nnc(C)n1-3 [Example 72, (9S,13S)-9-(2-Chlorophenyl)-3-methyl-N,N-dipropyl-16-thia-2,4,5,8-tetraazatetracyclo[8.6.0.0^2,6.0^11,15]hexadeca-1(10),3,5,11(15)-tetraene-13-carboxamide] | 8.1 | – | > 101 | –
CCCN(CCC)C(=O)[C@@H]1Cc2sc3c(c2C1)[C@H](c1ccccc1Cl)NCc1nnc(C)n1-3 [Example 73, (9R,13S)-9-(2-chlorophenyl)-3-methyl-N,N-dipropyl-16-thia-2,4,5,8-tetraazatetracyclo[8.6.0.0^2,6.0^11,15]hexadeca-1(10),3,5,11(15)-tetraene-13-carboxamide] | 0.7 | – | > 110 | –
Cc1nnc2n1-c1sc3c(c1C(c1ccccc1)NC2)CC(C(=O)N1CCOCC1)C3 (stereo not shown) [Example 74] | 252 | – | > 104 | –
O=C(C1Cc2sc3c(c2C1)C(c1ccccc1Cl)NCc1nnc(C2CC2)n1-3)N1CCOCC1 (stereo not shown) [Example 81, 9-(2-Chlorophenyl)-3-cyclopropyl-13-(morpholine-4-carbonyl)-16-thia-2,4,5,8-tetraazatetracyclo[8.6.0.0^2,6.0^11,15]hexadeca-1(10),3,5,11(15)-tetraene] | 224 | – | 68 (≈ 137 µM) | –

Reference: patent US11766443B2, “Cyclopentathiophene carboxamide derivatives as platelet activating factor receptor antagonists” (Boehringer Ingelheim International GmbH, priority 2021, dated 2023)
